Consider three compounds from patent US12280087B2, “Composition comprising self-assembling peptides for use in treatment of gingivitis, periodontitis and/or peri-implantitis” (Credentis AG, priority 2016, dated 2025).

Where no end group is shown, it is not given here. [ ]: non-standard residue; d: D form. Orn = NCCC[C@H](N)C(=O)O

In one series the test system is PDLF cells. Description: Stability of SAP matrices in contact with PDLF cells or medium (peptide in supernatant, UV-spectroscopy). In kind it is cell-based. The settings on record: 20 mg/ml P11-4, 15 mg/ml others; 2000 PDLF cells/well or medium; 24 h. As to the method: Different SAP hydrogels or matrices (20 mg/ml for P11-4; 15 mg/ml for […]) were contacted with 2000 PDLF cells/well or medium. Degradation was measured after 24 h by detection of peptide concentration in the supernatant by UV-spectroscopy. No significant effect of the cells was seen.

For series [1], the system named is periodontal ligament fibroblasts (PDLF). Description: In vitro periodontal pocket model, migration of PDLF out of donor compartment. In kind it is cell-based, human. The settings on record: P11-4 20 mg/ml, all others 15 mg/ml. As to the method: FIG. 6: Cell migration of a 15 mg/ml P11-4 gel on a periodontal ligament model after 8 days of incubation. Human Periodontal Ligament cells were placed in a cell pool (A) and the SAP gel (C) placed on the human dentin (B). The cell/SAP-gel/dentin was then incubated for 8 days and visually assessed resulting in migration of up to 5 mm. Scale bar: 1 mm
An in vitro model of a periodontal pocket (Meyer et al., 2016) was used to assess the migration distance of periodontal ligament fibroblasts (PDLF) out of the donor compartment. In brief, to determine early processes of tissue healing, three endpoints were investigated: Adhesion, proliferation and migration of human primary periodontal ligament fibroblasts (PDLF, ScienCell). In order to mimic the in vivo conditions as close as possible, pure bovine dentin surface served as underlying structure. Adhesion and proliferation of PDLF was assessed in a time dependent manner using ATP viability Kit (Promega). Visualization of the cells on the matrix was realized by SEM. For evaluation of cell adhesion and proliferation, Emdogain® (Straumann) was used as a positive control, as it has already proven its efficacy to promote periodontal regeneration in vivo. […]
PDLF cells were allowed to migrate in different SAP or collagen hydrogels (P11-4: 20 mg/ml; all others 15 mg/ml), as explained in Example L. Migration distances were analyzed after 4 and 8 days. […]

Series [2] is described as follows: Mechanical properties (G′) of SAP gels in different ions and buffer systems. In kind it is physicochemical. As to the method:
FIG. 5: Mechanical properties are dependent on the presence of different ions and buffer systems. […] Since NO3− are monovalent ions, and ionic strength of the solution was below 130 mM, P11-8 self-assembling was slowed down. On the other hand self-assembling kinetic of P11-8 with DMEM and NaCl solution is very similar.

The test system of series [3] is hPDLF cells (human periodontal ligament fibroblasts). Description: Cell viability on SAP hydrogels compared to Emdogain (PrestoBlue). In kind it is cell-based. The conditions noted are these: all concentrations tested (15, 20, 30 mg/ml SAP); 24, 48, 96 h; Emdogain 30 mg/ml. As to the method:
(§1) Left column 15 mg/ml SAP, middle column: 20 mg/ml SAP, right column 30 mg/ml SAP for each SAP, for Emdogain®, the concentration is constant at 30 mg/ml, and the three columns show 24, 48 and 96 h administration. […] Collagen (1.5 mg/ml) was used as a test system control. Cell proliferation was measured by the metabolic conversion of PrestoBlue viability reagent. Data were normalized in respect to values measured at day 1.
(§2) Proliferation of hPDLF (periodontal ligament fibroblasts) and SAOS-2 (Sarcoma osteogenic) cells on self-assembling peptides (P11-4, P11-8, P11-13 and P11-14, 15 mg/ml SAP, 20 mg/ml SAP, 30 mg/ml SAP respectively) was compared to the current gold standard Emdogain® and/or collagen after 24, 48 and 96 h. For Emdogain®, the concentration is constant at 30 mg/ml. Viability was measured by PrestoBlue® Cell Viability Reagent A13261.

The subject of series [4] is SAOS-2 cells (Sarcoma osteogenic). The description is as above. In kind it is cell-based. As to the method:
as §1, §2

In a further series the test system is S. sanguinis. The series can be described thus: Release of antibiotics from self-assembling peptide gels, bacterial growth by turbidity OD600. The settings on record: antibiotic 150 mg/ml in SAP gels 15 mg/ml (P11-4, P11-13/14, P11-28/29); OD600 normalized to gel without antibiotic; over 120 hours. In kind it is cell-based. As to the method: (§3) FIG. 1: Bacterial density after release of antibiotics (150 mg/ml) from self-assembling peptide gels (15 mg/ml), and the impact thereof to the growth of P. gingivalis (A-C) and S. sanguinis (D-F). Circles: metronidazol, stars: tetracycline, triangle: ciprofloxacin, squares: doxycycline hyclate; control: gel without API
(§4) Hydrogels comprising self-assembling peptides with (150 mg/ml) and without antibiotics were formed by dissolving the respective peptides at a concentration of 15 mg/ml or equimolar for combination SAP in a concentration of −10 mg*ml-1 as follows:
(§5) For the gels formed by peptides P11-13 and P11-14: or for P11-28 and P11-29, equimolar solutions of peptides were prepared in a well plate, and pH corrected to physiological conditions, resulting in a gel.
(§6) Furthermore 100 uL/well of a defined anaerobic P. gingivalis or aerobic S. anguines bacterial culture (10^7 CFU/ml e.g. 990 μl BHI medium, 10 μl 10^8 CFU/ml bacteria suspension) were added onto the gels. Impact on growth was assessed by measuring turbidity at OD600 nm. Data obtained with antibiotics were normalized to control (gel+bacteria+medium without antibiotics) to analyse the relative bacterial density. 50 μl/well of medium were added every second day.

Another series concerns P. gingivalis. The description is as above. The settings on record: antibiotic 150 mg/ml in SAP gels 15 mg/ml (P11-4, P11-13/14, P11-28/29); OD600 normalized to gel without antibiotic; over 120 hours. In kind it is cell-based. The method, then: as §3, §4, §5, §6
Series [5] can be described thus: Self-assembly at neutral pH, visual appearance. In kind it is physicochemical. The conditions noted are these: 1 part RADA16 solution (1 wt % in water) added to 1 part DMEM, neutral pH 7.

As for “QQRFOWOFEQQ (QQRF[Orn]W[Orn]FEQQ) [P11-8, self-assembling peptide]”, the “degradation (peptide concentration in the supernatant)” value in the series with PDLF cells is recorded as “degraded slightly more than the other SAP”. The “homogenous migration of PDLF cells, visually” value in series [1] is on record as “most obvious”. For the same compound, the “migration distance of PDLF cells compared to collagen” value in series [1] (after 4 days) is “slightly increased compared to collagen”. In addition, in series [2] (DMEM pH 7.4 versus Tris-NaCl), the “storage modulus G′ / self-assembling kinetic of gel” value is on record as “very similar”. Also, in series [2] (artificial saliva (Tris 120 mM, Ca(NO3) 4 mM, KH2PO4 2.4 mM, pH 7.2) versus Tris-NaCl, DMEM, Tris MgSO4), the “storage modulus G′ of gel” value is listed as “lowest storage modulus was achieved with artificial saliva”. In addition, the “cell viability compared to Emdogain” value in series [3] was “increased cell viability of hPDLF cells compared to Emdogain®”; in series [4] (30 mg/ml SAP) it was “strongly increased”; in series [4] (the other concentrations (15, 20 mg/ml SAP)), “slightly increased or about equal”.

Consider `Cc1ncc([N+](=O)[O-])n1CCO` [metronidazole], for which the “impact of antibiotic released from SAP gel on bacterial growth (relative bacterial density)” value with S. sanguinis and in the series with P. gingivalis was “low effectivity in most systems at this concentration” throughout.

Consider RADA16, for which the self-assembly entry in series [5] is “No self-assembling is visible”.
